Test results published in patent US20120053053A1, “PYRIMIDINE DERIVATIVES AND THEIR USE AS HERBICIDES” (SYNGENTA CROP PROTECTION, LLC, priority 2009, published 2012).

Assays:
Type in all cases: in vivo
[1] = system: Echinochloa crus-galli (ECHCG); assay: Post-emergence biological efficacy (percentage damage); details: Echinochloa crus-galli, 312 h, evaluated after 13 days, 100=total damage, 0=no damage; for pest or weed control at 1000 g/ha: dose 1,000 g/ha
Method: (§1) Seeds of Alopecurus myosuroides (ALOMY), Setaria faberi (SETFA), Echinochloa crus-galli (ECHCG), Solanum nigrum (SOLNI), Amaranthus retoflexus (AMARE) and Ipomea hederaceae (IPOHE) were sown in standard soil in pots. After cultivation for 8 days under controlled conditions in a glasshouse (at 24/16° C., day/night; 14 hours light; 65% humidity), the plants were sprayed with an aqueous spray solution derived from the formulation of the technical active ingredient in acetone/water (50:50) solution containing 0.5% Tween 20 (polyoxyethylene sorbitan monolaurate, CAS RN 9005-64-5) to give a final dose of 250 or 1000 g/ha of test compound. The test plants were then grown on under controlled conditions in a glasshouse (at 24/16° C., day/night; 14 hours light; 65% humidity) and watered twice daily. After 13 days the test was evaluated (100=total damage to plant; 0=no damage to plant).

[2] = system: Ipomea hederaceae (IPOHE); assay: as above; details: Ipomoea hederacea, 312 h, evaluated after 13 days, 100=total damage, 0=no damage; for pest or weed control at 1000 g/ha: dose 1,000 g/ha
Method: as §1

[3] = system: Alopecurus myosuroides (ALOMY); assay: as above; details: Alopecurus myosuroides, 312 h, evaluated after 13 days, 100=total damage, 0=no damage; for pest or weed control at 1000 g/ha: dose 1,000 g/ha
Method: as §1

[4] = system: Amaranthus retoflexus (AMARE); assay: as above; details: Amaranthus retroflexus, 312 h, evaluated after 13 days, 100=total damage, 0=no damage; for pest or weed control at 1000 g/ha: dose 1,000 g/ha
Method: as §1

Solanum nigrum (SOLNI) [5] = assay: as above; details: Solanum nigrum, 312 h, evaluated after 13 days, 100=total damage, 0=no damage; for pest or weed control at 1000 g/ha: dose 1,000 g/ha
Method: as §1

Setaria faberi (SETFA) [6] = assay: as above; details: Setaria faberi, 312 h, evaluated after 13 days, 100=total damage, 0=no damage; for pest or weed control at 1000 g/ha: dose 1,000 g/ha
Method: as §1

[7] = system: Echinochloa crus-galli (ECHCG); assay: Pre-emergence biological efficacy (percentage damage); details: Echinochloa crus-galli, 312 h, evaluated after 13 days, 100=total damage, 0=no damage; for pest or weed control at 1000 g/ha: dose 1,000 g/ha
Method: (§2) Seeds of Alopecurus myosuroides (ALOMY), Setaria faberi (SETFA), Echinochloa crus-galli (ECHCG), Solanum nigrum (SOLNI), Amaranthus retoflexus (AMARE) and Ipomea hederaceae (IPOHE) were sown in standard soil in pots. After cultivation for one day under controlled conditions in a glasshouse (at 24/16° C., day/night; 14 hours light; 65% humidity), the plants were sprayed with an aqueous spray solution derived from the formulation of the technical active ingredient in acetone/water (50:50) solution containing 0.5% Tween 20 (polyoxyethylene sorbitan monolaurate, CAS RN 9005-64-5) to give a final dose of 250 or 1000 g/ha of test compound. The test plants were then grown under controlled conditions in the glasshouse (at 24/16° C., day/night; 14 hours light; 65% humidity) and watered twice daily. After 13 days the test was evaluated (100=total damage to plant; 0=no damage to plant).

[8] = system: Ipomea hederaceae (IPOHE); assay: as above; details: Ipomoea hederacea, 312 h, evaluated after 13 days, 100=total damage, 0=no damage; for pest or weed control at 1000 g/ha: dose 1,000 g/ha
Method: as §2

[9] = system: Alopecurus myosuroides (ALOMY); assay: as above; details: Alopecurus myosuroides, 312 h, evaluated after 13 days, 100=total damage, 0=no damage; for pest or weed control at 1000 g/ha: dose 1,000 g/ha
Method: as §2

[10] = system: Amaranthus retoflexus (AMARE); assay: as above; details: Amaranthus retroflexus, 312 h, evaluated after 13 days, 100=total damage, 0=no damage; for pest or weed control at 1000 g/ha: dose 1,000 g/ha
Method: as §2

Solanum nigrum (SOLNI) [11] = assay: as above; details: Solanum nigrum, 312 h, evaluated after 13 days, 100=total damage, 0=no damage; for pest or weed control at 1000 g/ha: dose 1,000 g/ha
Method: as §2

Setaria faberi (SETFA) [12] = assay: as above; details: Setaria faberi, 312 h, evaluated after 13 days, 100=total damage, 0=no damage; for pest or weed control at 1000 g/ha: dose 1,000 g/ha
Method: as §2

Structure (SMILES) | pest or weed control at 1000 g/ha [1] [%] | pest or weed control at 1000 g/ha [2] [%] | pest or weed control at 1000 g/ha [3] [%] | pest or weed control at 1000 g/ha [4] [%] | pest or weed control at 1000 g/ha (Solanum nigrum (SOLNI) [5]) [%] | pest or weed control at 1000 g/ha (Setaria faberi (SETFA) [6]) [%] | pest or weed control at 1000 g/ha [7] [%] | pest or weed control at 1000 g/ha [8] [%] | pest or weed control at 1000 g/ha [9] [%] | pest or weed control at 1000 g/ha [10] [%] | pest or weed control at 1000 g/ha (Solanum nigrum (SOLNI) [11]) [%] | pest or weed control at 1000 g/ha (Setaria faberi (SETFA) [12]) [%] | further results
COC(=O)c1nc(C2CC2)nc(N)c1C#CC(C)(C)C [Compound 2-77, 4-Amino-2-cyclopropyl-5-(3,3-dimethylbut-1-ynyl)-6-methoxycarbonyl-pyrimidine] | – | – | – | – | – | – | – | – | – | – | – | – | pest or weed control at 250 g/ha ([1]; dose 250 g/ha): 0%; pest or weed control at 250 g/ha ([2]; dose 250 g/ha): 70%; pest or weed control at 250 g/ha ([3]; dose 250 g/ha): 0%; pest or weed control at 250 g/ha ([4]; dose 250 g/ha): 30%; pest or weed control at 250 g/ha (Solanum nigrum (SOLNI) [5]; dose 250 g/ha): 40%; pest or weed control at 250 g/ha (Setaria faberi (SETFA) [6]; dose 250 g/ha): 0%; pest or weed control at 250 g/ha ([7]; dose 250 g/ha): 0%; pest or weed control at 250 g/ha ([8]; dose 250 g/ha): 0%; pest or weed control at 250 g/ha ([9]; dose 250 g/ha): 0%; pest or weed control at 250 g/ha ([10]; dose 250 g/ha): 0%; pest or weed control at 250 g/ha (Solanum nigrum (SOLNI) [11]; dose 250 g/ha): 0%; pest or weed control at 250 g/ha (Setaria faberi (SETFA) [12]; dose 250 g/ha): 0%
COC(=O)c1nc(C2CC2)nc(N)c1C#C[Si](C)(C)C [Compound 2-78, 4-amino-2-cyclopropyl-6-methoxycarbonyl-5-(trimethylsilylethynyl)-pyrimidine] | 60 | 100 | 30 | 100 | 100 | 60 | 30 | 100 | 20 | 90 | 90 | 10 | –
COC(=O)c1nc(C2CC2)nc(N(C)C)c1C [Compound 2-221, 2-Cyclopropyl-4-dimethylamino-6-methoxycarbonyl-5-methylpyrimidine] | 70 | 80 | 20 | 100 | 80 | 60 | 0 | 70 | 30 | 60 | 60 | 0 | –
C=Cc1c(C(=O)OC)nc(C2CC2)nc1N(C)C [Compound 2-225, 2-Cyclopropyl-4-dimethylamino-5-ethenyl-6-methoxycarbonyl-pyrimidine] | 0 | 30 | 0 | 40 | 50 | 0 | 0 | 20 | 0 | 40 | 0 | 0 | –
COC(=O)COc1nc(C2CC2)nc(N)c1C [Compound 2-362, 4-amino-2-cyclopropyl-6-methoxycarbonylmethoxy-5-methylpyrimidine] | 60 | 80 | 40 | 80 | 80 | 70 | 10 | 30 | 40 | 40 | 10 | 40 | –
C=Cc1c(N)nc(SC)nc1OCC(=O)OC [Compound 2-366, 4-amino-5-ethenyl-6-methoxycarbonylmethoxy-2-methylthio-pyrimidine] | 0 | 0 | 0 | 0 | 20 | 0 | 0 | 0 | 0 | 0 | 0 | 0 | –
Cc1c(Cl)nc(C2CC2)nc1OCC(=O)O [Compound 2-375, (4-chloro-2-cyclopropyl-5-methyl-pyrimidin-6-yloxy)-acetic acid] | 0 | 20 | 0 | 10 | 10 | 0 | 0 | 20 | 0 | 0 | 0 | 0 | –
COC(=O)COc1nc(C2CC2)nc(Cl)c1C [Compound 2-376, 4-chloro-2-cyclopropyl-6-methoxycarbonylmethoxy-5-methylpyrimidine] | 0 | 50 | 0 | 20 | 30 | 20 | 0 | 0 | 0 | 30 | 0 | 0 | –
Cc1c(OCC(=O)OC(C)(C)C)nc(C2CC2)nc1OCC(=O)OC(C)(C)C [Compound 2-389, 4,6-bis(t-butoxy-carbonyl-methoxy)-2-cyclo-propyl-5-methyl-pyrimidine] | 0 | 20 | 0 | 0 | 30 | 0 | 0 | 0 | 0 | 20 | 0 | 0 | –
C=Cc1c(OC)nc(C2CC2)nc1C(=O)OC [Compound 2-398, 2-Cyclopropyl-5-ethenyl-4-methoxy-6-methoxy-carbonyl-pyrimidine] | 0 | 90 | 0 | 90 | 80 | 0 | 0 | 100 | 0 | 90 | 90 | 0 | –
C=Cc1c(N=[N+]=[N-])nc(C2CC2)nc1C(=O)OC [Compound 2-399, 4-azido-2-cyclopropyl-5-ethenyl-6-methoxycarbonyl-pyrimidine] | 0 | 20 | 0 | 20 | 20 | 0 | 0 | 0 | 0 | 0 | 0 | 0 | –
